The values that follow come from article PMC12488499, “Molecular mechanism of ultrafast transport by plasma membrane Ca^2+-ATPases” (Nature, 2025).

Experiment [1] deals with T1, PMCA2 (Mus musculus, UniProt Q9R0K7). Put plainly: cryo-EM structure, E1-ATP state. It counts as binding. Details: gene Atp2b2; mouse PMCA2 (NM_001036684.3) with C-terminal FLAG or His-FLAG tag, expressed in tsA201 NPTN/BSG double knockout cells; with NPTN.
Experiment [2] deals with T1, PMCA2. Nature of the experiment: whole-cell patch clamp, BKCa-based Ca2+ transport assay in CHO cells. More on the design: gene Atp2b2; PMCA2 C-terminally fused with GFP, co-expressed with NPTN-RFP in CHO cells; with NPTN. For orientation: The patch-clamp technique gives a direct electrical read-out from membranes.

T1 sequence (Q9R0K7 whole entry, the tested form may be a part): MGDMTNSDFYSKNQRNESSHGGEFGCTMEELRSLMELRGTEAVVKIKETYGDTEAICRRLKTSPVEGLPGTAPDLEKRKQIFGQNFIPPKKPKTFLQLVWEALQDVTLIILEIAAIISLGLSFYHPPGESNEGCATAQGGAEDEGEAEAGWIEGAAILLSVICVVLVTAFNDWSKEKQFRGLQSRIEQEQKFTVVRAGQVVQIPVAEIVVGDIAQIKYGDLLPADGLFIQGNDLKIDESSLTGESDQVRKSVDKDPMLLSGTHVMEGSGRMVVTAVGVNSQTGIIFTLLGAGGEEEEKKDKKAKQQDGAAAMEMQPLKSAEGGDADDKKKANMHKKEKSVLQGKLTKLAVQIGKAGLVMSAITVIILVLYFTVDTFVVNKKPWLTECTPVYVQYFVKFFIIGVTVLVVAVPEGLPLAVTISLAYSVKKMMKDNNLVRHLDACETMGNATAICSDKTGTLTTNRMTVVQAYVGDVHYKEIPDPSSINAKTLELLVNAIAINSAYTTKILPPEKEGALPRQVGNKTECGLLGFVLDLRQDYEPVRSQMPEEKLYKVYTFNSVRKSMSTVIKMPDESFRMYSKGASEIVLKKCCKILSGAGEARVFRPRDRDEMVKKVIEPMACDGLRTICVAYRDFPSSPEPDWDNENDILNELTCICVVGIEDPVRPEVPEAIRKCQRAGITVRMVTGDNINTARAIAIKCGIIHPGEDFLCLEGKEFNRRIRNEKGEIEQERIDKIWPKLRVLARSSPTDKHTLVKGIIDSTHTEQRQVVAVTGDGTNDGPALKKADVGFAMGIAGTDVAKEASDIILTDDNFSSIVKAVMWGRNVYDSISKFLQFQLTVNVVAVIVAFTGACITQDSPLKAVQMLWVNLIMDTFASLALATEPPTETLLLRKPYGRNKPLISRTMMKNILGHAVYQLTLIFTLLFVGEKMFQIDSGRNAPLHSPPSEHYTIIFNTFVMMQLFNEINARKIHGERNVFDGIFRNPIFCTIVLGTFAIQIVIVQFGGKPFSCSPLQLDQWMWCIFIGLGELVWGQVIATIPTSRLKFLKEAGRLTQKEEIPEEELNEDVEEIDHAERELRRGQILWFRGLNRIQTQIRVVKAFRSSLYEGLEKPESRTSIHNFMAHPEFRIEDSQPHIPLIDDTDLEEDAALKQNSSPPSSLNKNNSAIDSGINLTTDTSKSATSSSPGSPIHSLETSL
T1 sequence (P97300 29-397 partner): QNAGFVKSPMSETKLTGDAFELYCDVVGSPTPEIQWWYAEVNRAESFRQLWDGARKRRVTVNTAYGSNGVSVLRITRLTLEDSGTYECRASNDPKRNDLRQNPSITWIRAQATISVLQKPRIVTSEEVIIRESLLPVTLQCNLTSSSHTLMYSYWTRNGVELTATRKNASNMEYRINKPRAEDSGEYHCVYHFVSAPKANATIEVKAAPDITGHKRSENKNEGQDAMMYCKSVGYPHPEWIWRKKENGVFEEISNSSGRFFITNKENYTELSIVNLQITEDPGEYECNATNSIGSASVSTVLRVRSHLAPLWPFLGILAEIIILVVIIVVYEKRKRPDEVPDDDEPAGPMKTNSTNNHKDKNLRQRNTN

Take `Nc1ncnc2c1ncn2[C@@H]1O[C@H](CO[P@](=O)(O)O[P@](=O)(O)NP(=O)(O)O)[C@@H](O)[C@H]1O` [AMPPNP]: the “cryo-EM structure, E1-ATP state” value on PMCA2 [1] is given as “The bound AMPPNP molecule is shown, with the corresponding cryo-EM density in grey”. For orientation: IC50 means the concentration needed to halve the response being measured. At PMCA2 [2], `C/C=C(/C)C(=O)O[C@H]1C(C)=C2[C@H]([C@@H]1OC(=O)CCCCCCC)[C@@](C)(OC(C)=O)C[C@H](OC(=O)CCC)[C@@]1(O)[C@H]2OC(=O)[C@@]1(C)O` [thapsigargin] yielded an IC50 of 2600 nM.
